Results from US8952042B2, “FXR (NR1H4) binding and activity modulating compounds” (Phenex Pharmaceuticals AG, priority 2009, dated 2015).
One block for each compound: values may come before it.

Columns and labels:
[1] = target: T1, FXR ligand binding domain (Homo sapiens, UniProt Q96RI1); test: Mammalian One Hybrid (M1H) Gal4 reporter assay in HEK293 cells; type: cell-based; settings: potency range
T1 construct: expressed in transfected cells; host or cells: HEK293 cells (DSMZ), transient transfection of pCMV-BD-FXR-LBD
T1 sequence (Q96RI1 187-472 isoform Q96RI1-2): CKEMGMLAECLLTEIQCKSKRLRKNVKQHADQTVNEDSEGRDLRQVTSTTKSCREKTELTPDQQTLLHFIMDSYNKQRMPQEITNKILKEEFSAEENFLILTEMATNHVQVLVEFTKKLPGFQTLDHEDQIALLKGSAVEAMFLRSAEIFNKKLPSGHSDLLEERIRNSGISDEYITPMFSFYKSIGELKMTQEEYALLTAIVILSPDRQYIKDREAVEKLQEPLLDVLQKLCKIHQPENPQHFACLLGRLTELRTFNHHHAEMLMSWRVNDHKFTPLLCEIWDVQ
Experimental: Determination of a ligand mediated Gal4 promoter driven transactivation to quantify ligand binding mediated activation of FXR was performed as follows: The cDNA part encoding the FXR ligand binding domain was cloned into vector pCMV-BD (Stratagene) as a fusion to the yeast GAL4 DNA binding domain under the control of the CMV promoter. The amino acid boundaries of the ligand binding domain were amino acids 187-472 of Database entry NM_005123 (RefSeq). The plasmid pFR-Luc (Stratagene) was used as the reporter plasmid, containing a synthetic promoter with five tandem repeats of the yeast GAL4 binding sites, driving the expression of the Photinus pyralis (American firefly) luciferase gene as the reporter gene. In order to improve experimental accuracy the plasmid pRL-CMV (Promega) was cotransfected. pRL-CMV contains the constitutive CMV promoter, controlling the expression of the Renilla reniformis luciferase. All Gal4 reporter gene assays were done in HEK293 cells (obtained from DSMZ, Braunschweig, Germany) grown in MEM with L-Glutamine and Earle's BSS supplemented with 10% fetal bovine serum, 0.1 mM nonessential amino acids, 1 mM sodium pyruvate, and 100 units Penicillin/[…] per mL at 37° C. in 5% CO2. Medium and supplements were obtained from Invitrogen. For the assay, […] were plated per well in 96 well plates in 100 μL per well MEM without Phenol Red and L-Glutamine and with Earle's BSS supplemented with 10% charcoal/dextran treated FBS (HyClone, South Logan, Utah), 0.1 mM nonessential amino acids, 2 mM glutamine, 1 mM sodium pyruvate, and 100 units Penicillin/[…] per mL, incubated at 37° C. in 5% CO2. The following day the cells were >90% confluence. Medium was removed and cells were transiently transfected using 20 μL per well of a OptiMEM—polyethylene-imine-based transfection-reagent (OptiMEM, Invitrogen; Polyethyleneimine, Aldrich Cat No. 40, 827-7) including the three plasmids described above. MEM with the same composition as used for plating cells was added 2-4 h after addition of transfection mixture. Then compound stocks, prediluted in MEM were added (final vehicle concentration not exceeding 0.1%). Cells were incubated for additional 16 h before firefly and renilla luciferase activities were measured sequentially in the same cell extract using a Dual-Light-Luciferase-Assay system (Dyer et al., Anal. Biochem. 2000, 282, 158-161). All experiments were done in triplicates.

[2] = target: T2, human FXR alpha ligand binding domain (Homo sapiens, UniProt Q96RI1); test: FRET activity assay (ligand mediated cofactor peptide interaction, LANCE); type: biochemical; settings: potency range
T2 construct: made in house; host or cells: E. coli BL21(DE3), vector pDEST15
T2 sequence (Q96RI1 187-472 isoform Q96RI1-2): T1 sequence (Q96RI1 187-472 isoform Q96RI1-2)
Experimental: Determination of a ligand mediated cofactor peptide interaction to quantify ligand binding to the nuclear receptor FXR was performed as follows: Preparation of human FXR alpha ligand binding domain: The human FXRalpha LBD was expressed in E. coli strain BL21(DE3) as an N-terminally GST tagged fusion protein. The DNA encoding the FXR ligand binding domain was cloned into vector pDEST15 (Invitrogen). Expression was under control of an IPTG inducible T7 promoter. The amino acid boundaries of the ligand binding domain were amino acids 187-472 of Database entry NM_005123 (RefSeq). Expression and purification of the FXR-LBD: An overnight preculture of a transformed E. coli strain was diluted 1:20 in LB-Ampicillin medium and grown at 30° C. to an optical density of OD600=0.4-0.6. Gene expression was then induced by addition of 0.5 mM IPTG. Cells were incubated an additional 6 h at 30° C., 180 rpm. Cells were collected by centrifugation (7000×g, 7 min, room temperature). Per liter of original cell culture, cells were resuspended in 10 mL lysis buffer (50 mM Glucose, 50 mM Tris pH 7.9, 1 mM EDTA and 4 mg/mL lysozyme) and left on ice for 30 min. Cells were then subjected to sonication and cell debris removed via centrifugation (22000×g, 30 min, 4° C.). Per 10 mL of supernatant 0.5 mL prewashed Glutathione 4B sepharose slurry (Qiagen) was added and the suspension kept slowly rotating for 1 h at 4° C. Glutathione 4B sepharose beads were pelleted by centrifugation (2000×g, 15 sec, 4° C.) and washed twice in wash buffer (25 mM Tris, 50 mM KCl, 4 mM MgCl2 and 1M NaCl). The pellet was resuspended in 3 mL elution buffer per liter of original culture (elution buffer: 20 mM Tris, 60 mM KCl, 5 mM MgCl2 and 80 mM glutathione added immediately prior to use as powder). The suspension was left rotating for 15 min at 4° C., the beads pelleted and eluted again with half the volume of elution buffer than the first time. The eluates were pooled and dialysed overnight in 20 mM Hepes buffer (pH 7.5) containing 60 mM KCl, 5 mM MgCl2 as well as 1 mM dithiothreitol and 10% (v/v) glycerol. The protein was analysed by SDS-Page.
The method measures the ability of putative ligands to modulate the interaction between the purified bacterial expressed FXR ligand binding domain (LBD) and a synthetic biotinylated peptide based on residues 676-700 of SRC-1 (LCD2, 676-700). […] The ligand binding domain (LBD) of FXR was expressed as fusion protein with GST in BL-21 cells using the vector pDEST15. Cells were lysed by sonication, and the fusion proteins purified over glutathione sepharose (Pharmacia) according to the manufacturers instructions. For screening of compounds for their influence on the FXR-peptide interaction, the Perkin Elmer LANCE technology was applied. This method relies on the binding dependent energy transfer from a donor to an acceptor fluorophor attached to the binding partner of interest. For ease of handling and reduction of background from compound fluorescence LANCE technology makes use of generic fluorophore labels and time resolved detection Assays were done in a final volume of 25 μL in a 384 well plate, in a Tris-based buffer (20 mM Tris-HCl pH 7.5; 60 mM KCl, 5 mM MgCl2; 35 ng/μL BSA), containing 20-60 ng/well recombinantly expressed FXR-LBD fused to GST, 200-600 nM N-terminally biotinylated peptide, representing SRC1 aminoacids 676-700, 200 ng/well Streptavidin-xIAPC conjugate (Prozyme) and 6-10 ng/well Eu W1024—antiGST (Perkin Elmer). DMSO content of the samples was kept at 1%. After generation of the assay mix and diluting the potentially FXR modulating ligands, the assay was equilibrated for one hour in the dark at room temperature in FIA-plates black 384 well (Greiner). The LANCE signal was detected by a Perkin Elmer VICTOR2V™ Multilabel Counter. The results were visualized by plotting the ratio between the emitted light at 665 and 615 nm.

EC50 [1]: > 100 nM
EC50 [2]: > 100 nM
SMILES: O=C(O)c1cccc(C2CC2c2ccc(OCc3c(-c4c(Cl)cccc4Cl)noc3C3CC3)cc2Cl)c1 (single isomer, unassigned; (+)) [Example 5b, (+)-3-(2-(2-chloro-4-((5-cyclopropyl-3-(2,6-dichlorophenyl)isoxazol-4-yl)methoxy)phenyl)cyclopropyl)benzoic acid]

EC50 [1]: > 100 nM
EC50 [2]: > 100 nM
SMILES: O=C(O)c1ccc(C2CC2c2ccc(OCc3c(-c4c(Cl)cccc4Cl)noc3C3CC3)cc2Cl)cc1 (single isomer, unassigned; (+)) [Example 12b, (+)-4-(2-(2-chloro-4-((5-cyclopropyl-3-(2,6-dichlorophenyl)isoxazol-4-yl)methoxy)phenyl)cyclopropyl)benzoic acid]

EC50 [1]: 10 to 100 nM
EC50 [2]: 10 to 100 nM
SMILES: Cn1nc(C(=O)O)c2ccc(C3CC3c3ccc(OCc4c(-c5c(Cl)cccc5Cl)noc4C4CC4)cc3Cl)cc21 (single isomer, unassigned; (+)) [Example 13a, (+)-6-(2-(2-chloro-4-((5-cyclopropyl-3-(2,6-dichlorophenyl)isoxazol-4-yl)methoxy)phenyl)cyclopropyl)-1-methyl-1H-indazole-3-carboxylic acid]

EC50 [1]: 10 to 100 nM
EC50 [2]: < 10 nM
SMILES: O=C(O)c1cccc(C2CC2c2ccc(OCc3c(-c4c(Cl)cccc4Cl)noc3C3CC3)cc2Cl)c1 (single isomer, unassigned; (-)) [Example 5a, (−)-3-(2-(2-chloro-4-((5-cyclopropyl-3-(2,6-dichlorophenyl)isoxazol-4-yl)methoxy)phenyl)cyclopropyl)benzoic acid]

EC50 [1]: < 10 nM
EC50 [2]: < 10 nM
SMILES: Cn1nc(C(=O)O)c2ccc(C3CC3c3ccc(OCc4c(-c5c(Cl)cccc5Cl)noc4C4CC4)cc3Cl)cc21 (single isomer, unassigned; (-)) [Example 13b, (−)-6-(2-(2-chloro-4-((5-cyclopropyl-3-(2,6-dichlorophenyl)isoxazol-4-yl)methoxy)phenyl)cyclopropyl)-1-methyl-1H-indazole-3-carboxylic acid]

The remaining lines, values behind:

SMILES: Cn1nc(C(=O)O)c2ccc(C3CC3c3ccc(OCc4c(-c5c(Cl)cccc5Cl)noc4C4CC4)cc3Cl)cc21 (racemic) [Example 13, 6-(2-(2-chloro-4-((5-cyclopropyl-3-(2,6-dichlorophenyl)isoxazol-4-yl)methoxy)phenyl)cyclopropyl)-1-methyl-1H-indazole-3-carboxylic acid]
EC50 [1]: 10 to 100 nM
EC50 [2]: 10 to 100 nM

SMILES: O=C(O)c1cccc(C2CC2c2ccc(OCc3c(-c4c(Cl)cncc4Cl)noc3C3CC3)cc2Cl)c1 (stereo not shown) [Example 1, 3-(2-(2-chloro-4-((5-cyclopropyl-3-(3,5-dichloropyridin-4-yl)isoxazol-4-yl)methoxy)phenyl)cyclopropyl)-benzoic acid]
EC50 [1]: 10 to 100 nM
EC50 [2]: 10 to 100 nM

SMILES: O=C(O)c1cccc(C2CC2c2ccc(OCc3c(-c4c(Cl)c[n+]([O-])cc4Cl)noc3C3CC3)cc2Cl)c1 (stereo not shown) [Example 2, 4-(4-((4-(2-(3-carboxyphenyl)cyclopropyl)-3-chlorophenoxy)methyl)-5-cyclopropylisoxazol-3-yl)-3,5-dichloropyridine 1-oxide]
EC50 [1]: 10 to 100 nM
EC50 [2]: 10 to 100 nM

SMILES: CC(C)c1nnn(-c2c(Cl)cccc2Cl)c1COc1ccc(C2CC2c2cccc(C(=O)O)c2)c(Cl)c1 (stereo not shown) [Example 3, 3-(2-(2-chloro-4-((1-(2,6-dichlorophenyl)-4-isopropyl-1H-1,2,3-triazol-5-yl)methoxy)phenyl)cyclopropyl)benzoic acid]
EC50 [1]: 10 to 100 nM
EC50 [2]: 10 to 100 nM

SMILES: CC(C)c1onc(-c2c(Cl)cccc2Cl)c1COc1ccc(C2CC2c2cccc(C(=O)O)c2)c(Cl)c1 (stereo not shown) [Example 6, 3-(2-(2-chloro-4-((3-(2,6-dichlorophenyl)-5-isopropylisoxazol-4-yl)methoxy)phenyl)cyclopropyl)benzoic acid]
EC50 [1]: 10 to 100 nM
EC50 [2]: 10 to 100 nM

SMILES: Clc1cc(OCc2c(-c3c(Cl)cccc3Cl)noc2C2CC2)ccc1C1CC1c1ccc(-c2nnn[nH]2)nc1 (stereo not shown) [Example 7, 4-((4-(2-(6-(1H-tetrazol-5-yl)pyridin-3-yl)cyclopropyl)-3-chlorophenoxy)methyl)-5-cyclopropyl-3-(2,6-dichlorophenyl)isoxazole]
EC50 [1]: 10 to 100 nM
EC50 [2]: 10 to 100 nM

SMILES: O=C(O)c1ccc(C2CC2c2ccc(OCc3c(-c4c(Cl)cccc4Cl)noc3C3CC3)cc2Cl)cn1 (stereo not shown) [Example 8, 5-(2-(2-chloro-4-((5-cyclopropyl-3-(2,6-dichlorophenyl)isoxazol-4-yl)methoxy)-phenyl)cyclopropyl)picolinic acid]
EC50 [1]: 10 to 100 nM
EC50 [2]: 10 to 100 nM

SMILES: O=C(NCCS(=O)(=O)O)c1ccc(C2CC2c2ccc(OCc3c(-c4c(Cl)cccc4Cl)noc3C3CC3)cc2Cl)cc1 (stereo not shown) [Example 15, 2-(4-(2-(2-chloro-4-((5-cyclopropyl-3-(2,6-dichlorophenyl)isoxazol-4-yl)methoxy)phenyl)cyclopropyl)benzamido)ethanesulfonic acid]
EC50 [1]: > 100 nM
EC50 [2]: 10 to 100 nM

SMILES: CC(C)(O)c1onc(-c2c(Cl)cccc2Cl)c1COc1ccc(C2CC2c2ccc(C(=O)O)cc2)c(Cl)c1 (stereo not shown) [Example 17, 4-(2-(2-chloro-4-((3-(2,6-dichlorophenyl)-5-(2-hydroxypropan-2-yl)isoxazol-4-yl)methoxy)phenyl)cyclopropyl)benzoic acid]
EC50 [1]: > 100 nM
EC50 [2]: > 100 nM
